# Measurements taken from the supplement of paper PMC3937590.
# Tests used:
# Assay in all cases: -log10 GI50 (growth inhibition 50%) (-log10(M)); higher = more potent growth inhibition
# [1] = tested on: HCC38
# Method in brief: (§1)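 Breast cancer cell lines were exposed to each compound for 72 hours at nine doses in 1:5 serial dilution, in triplicate, with a luminescence read-out against a time-zero plate. A Gompertz curve was fitted to the dose-response data by nonlinear least squares. The value is minus log10 of GI50, the molar concentration giving the set level of growth inhibition. Values equal to the top dose carry a < qualifier.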
# [2] = tested on: MCF7
# Method in brief: as §1
# [3] = tested on: HCC70
# Method in brief: as §1
# [4] = tested on: MDAMB157
# Method in brief: as §1
# [5] = tested on: CAMA1
# Method in brief: as §1
# [6] = tested on: MDAMB175VII
# Method in brief: as §1
# [7] = tested on: 184A1
# Method in brief: as §1
# [8] = tested on: HS578T
# Method in brief: as §1
# [9] = tested on: HCC1937
# Method in brief: as §1
# [10] = tested on: T47D
# Method in brief: as §1
# [11] = tested on: MCF10F
# Method in brief: as §1
# [12] = tested on: HCC1954
# Method in brief: as §1
# [13] = tested on: SUM149PT
# Method in brief: as §1
# [14] = tested on: ZR75B
# Method in brief: as §1
# [15] = tested on: MCF10A
# Method in brief: as §1
# [16] = tested on: MX1
# Method in brief: as §1
# [17] = tested on: MDAMB134VI
# Method in brief: as §1
# [18] = tested on: HCC1187
# Method in brief: as §1
# [19] = tested on: MDAMB453
# Method in brief: as §1
# [20] = tested on: UACC812
# Method in brief: as §1
Compound,-log10 GI50 [1],-log10 GI50 [2],-log10 GI50 [3],-log10 GI50 [4],-log10 GI50 [5],-log10 GI50 [6],-log10 GI50 [7],-log10 GI50 [8],-log10 GI50 [9],-log10 GI50 [10],-log10 GI50 [11],-log10 GI50 [12],-log10 GI50 [13],-log10 GI50 [14],-log10 GI50 [15],-log10 GI50 [16],-log10 GI50 [17],-log10 GI50 [18],-log10 GI50 [19],-log10 GI50 [20]
Cc1ccc(C(=O)N(CCCN)[C@@H](c2nc3cc(Cl)ccc3c(=O)n2Cc2ccccc2)C(C)C)cc1 [Ispinesib],7.33,7.42,7.34,7.5,7.51,5.84,5.84,6.51,6.56,7.08,7.57,7.52,7.48,6.89,7.4,7.92,7.36,7.58,7.37,–
CS(=O)(=O)CCNCc1ccc(-c2ccc3ncnc(Nc4ccc(OCc5cccc(F)c5)c(Cl)c4)c3c2)o1 [Lapatinib],< 4.78,< 4.78,5.4,< 4.78,< 4.78,6.04,5.86,< 4.78,< 4.78,4.78,4.94,5.58,–,< 4.78,< 4.78,5.27,< 4.78,< 4.78,5.29,6.34
CC(C)C[C@@H](C=O)NC(=O)[C@H](CC(C)C)NC(=O)[C@H](CC(C)C)NC(=O)OCc1ccccc1 [MG-132],6.6,6.47,7.19,6.76,6.69,6.66,7.73,6.64,6.82,6.97,7.14,–,6.8,6.4,7.21,6.88,6.63,7.1,6.41,6.72
COC(=O)Nc1nc2cc(C(=O)c3ccccc3)ccc2[nH]1 [Mebendazole],6.48,6.22,6.86,6.3,6.33,6.6,< 4.18,6.46,4.9,5.66,5.45,6.82,6.18,6.81,5.5,6.42,–,5.4,6.75,4.9
CN(Cc1cnc2nc(N)nc(N)c2n1)c1ccc(C(=O)N[C@@H](CCC(=O)O)C(=O)O)cc1 [Methotrexate],< 3.48,7.34,< 3.48,7.12,6.97,< 3.48,7.18,< 3.48,< 3.48,< 3.48,7,8.07,< 3.48,< 3.48,7.39,7.82,< 3.48,5.59,< 3.48,–
CC(=O)O[C@H]1C(=O)[C@@]2(C)[C@H]([C@H](OC(=O)c3ccccc3)[C@]3(O)C[C@H](OC(=O)[C@H](O)[C@@H](NC(=O)c4ccccc4)c4ccccc4)C(C)=C1C3(C)C)[C@]1(OC(C)=O)CO[C@@H]1C[C@@H]2O [Paclitaxel],8.13,7.79,8.03,8.27,7.95,7.74,7.35,8.38,7.81,8.02,8.08,8.15,8.03,7.38,8.03,–,7.99,8.05,7.99,8.08
CC(C)[C@H](CO)Nc1nc(Nc2cccc(Cl)c2)c2ncn(C(C)C)c2n1 [Purvalanol A],< 3.78,4.29,< 3.78,< 3.78,3.87,4.12,4.62,< 3.78,4.37,< 3.78,4.74,4.11,4.88,< 3.78,4.29,< 3.78,4.26,4.63,< 3.78,–
CO[C@H]1C[C@@H]2CC[C@@H](C)[C@@](O)(O2)C(=O)C(=O)N2CCCC[C@H]2C(=O)O[C@H]([C@H](C)C[C@@H]2CC[C@@H](O)[C@H](OC)C2)CC(=O)[C@H](C)/C=C(\C)[C@@H](O)[C@@H](OC)C(=O)[C@H](C)C[C@H](C)/C=C/C=C/C=C/1C [Rapamycin],7.31,6.84,6.92,< 3.78,7.82,8.43,6.72,4.35,5.91,6.36,5.44,8.45,5.03,–,6.34,5.77,9.57,7.78,7.31,7.33
CCN(CC)CCNC(=O)c1c(C)[nH]c(/C=C2\C(=O)Nc3ccc(F)cc32)c1C [Sunitinib malate],5.24,5.23,5.6,5.21,5.07,5.18,5.37,5.37,5.16,4.94,5.39,5.26,5.57,–,5.27,5.27,4.97,5.26,5.3,–
O=C(CCCCCCC(=O)Nc1ccccc1)NO [Vorinostat],4.47,4.19,4.46,4.01,4.13,4.29,3.87,3.53,–,3.97,3.08,3.95,4.02,4.02,3.68,4.06,4.4,4.79,4.49,4.37
